The values that follow come from article PMC11597625, “Mutational Analysis of Substrate Recognition in Trypsin-like Protease Cocoonase: Protein Memory Induced by Alterations in Substrate-Binding Site” (Molecules, 2024).

SMILES strings stand for the structures.

One may read the Km as the substrate concentration at which the rate is half of its maximum.

The assay deals with T1, CCN′ ([K63G,K131G,K133A]-CCN, degradation-suppressed cocoonase) (Bombyx mori, UniProt A7TVD3, K85G/K153G/K155A).
T1 construct: mature enzyme, propeptide removed (precursors carried K8D or K8D/E10D/E11D in the propeptide)
T1 sequence (A7TVD3 entry or part of it K85G/K153G/K155A): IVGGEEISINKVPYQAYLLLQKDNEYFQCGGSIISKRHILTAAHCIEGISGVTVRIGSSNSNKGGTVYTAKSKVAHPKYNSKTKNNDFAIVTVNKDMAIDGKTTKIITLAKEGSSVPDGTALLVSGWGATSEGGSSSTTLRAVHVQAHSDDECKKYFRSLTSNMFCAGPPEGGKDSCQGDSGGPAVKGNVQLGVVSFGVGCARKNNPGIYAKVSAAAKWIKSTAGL
In words: BAEE hydrolysis assay. It counts as biochemical. To be noted: assay conditions not described.

As to `CCOC(=O)[C@H](CCCNC(=N)N)NC(=O)c1ccccc1` [BAEE], the Km was found to be 372 µM.
